Measurements published in article PMC7744773 (Redox Biology, 2020).

Target: CrGSNOR1 (Chlamydomonas reinhardtii, UniProt A0A2K3D6R4)
Assay: X-ray crystal structure, […] Å
Conditions: co-crystallised with 1 mM NAD^+, pH 8.5; cofactor-binding domain

CrGSNOR1, sequence (A0A2K3D6R4 1-378): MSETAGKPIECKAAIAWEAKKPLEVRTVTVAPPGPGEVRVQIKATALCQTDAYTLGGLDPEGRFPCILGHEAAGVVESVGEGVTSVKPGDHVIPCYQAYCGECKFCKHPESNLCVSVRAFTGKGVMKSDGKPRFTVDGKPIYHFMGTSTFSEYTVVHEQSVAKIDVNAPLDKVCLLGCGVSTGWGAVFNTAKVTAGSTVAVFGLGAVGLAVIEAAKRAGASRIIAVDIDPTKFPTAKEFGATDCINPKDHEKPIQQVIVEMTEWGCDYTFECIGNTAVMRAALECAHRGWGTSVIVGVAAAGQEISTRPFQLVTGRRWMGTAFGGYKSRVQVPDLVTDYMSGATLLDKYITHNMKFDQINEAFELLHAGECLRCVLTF

NC(=O)c1ccc[n+]([C@@H]2O[C@H](COP(=O)(O)OP(=O)(O)OC[C@H]3O[C@@H](n4cnc5c(N)ncnc54)[C@H](O)[C@@H]3O)[C@@H](O)[C@H]2O)c1 [NAD^+]
X-ray crystal structure, 2.3 Å: crystal structure of CrGSNOR1 under both apo- and holo-form (NAD^+-CrGSNOR1)
